Experimental data published in PMC6152004 (Molecules : A Journal of Synthetic Chemistry and Natural …, 2017).
Where two headings read alike, the source gives them in different places.

Legend:
AChE = settings: cited from earlier work; for IC50: read-out: AChE IC50
BChE = settings: read-out: BChE IC50; cited from earlier work
[1] = target: T1, human blood acetylcholinesterase (AChE) (Homo sapiens, UniProt P22303); experiment: AChE inhibition, modified Ellman's method, red blood cell lysate; format: biochemical
T1 construct: Red blood cell lysate was used as a source of AChE and human plasma as a source of BChE; from tissue; host or cells: human erythrocytes (lysate) from freshly drawn blood of healthy volunteers

[2] = target: human plasma butyrylcholinesterase (BChE) (Homo sapiens, UniProt P06276); experiment: biochemical
[3] = target: T2, recombinant prolyl oligopeptidase (POP) (Homo sapiens, UniProt P48147); experiment: Prolyl oligopeptidase assay, substrate Z-Gly-Pro-p-nitroanilide; format: biochemical
T2 construct: purchased Sigma-Aldrich (Prague, Czech Republic)
T2 sequence (P48147 1-710): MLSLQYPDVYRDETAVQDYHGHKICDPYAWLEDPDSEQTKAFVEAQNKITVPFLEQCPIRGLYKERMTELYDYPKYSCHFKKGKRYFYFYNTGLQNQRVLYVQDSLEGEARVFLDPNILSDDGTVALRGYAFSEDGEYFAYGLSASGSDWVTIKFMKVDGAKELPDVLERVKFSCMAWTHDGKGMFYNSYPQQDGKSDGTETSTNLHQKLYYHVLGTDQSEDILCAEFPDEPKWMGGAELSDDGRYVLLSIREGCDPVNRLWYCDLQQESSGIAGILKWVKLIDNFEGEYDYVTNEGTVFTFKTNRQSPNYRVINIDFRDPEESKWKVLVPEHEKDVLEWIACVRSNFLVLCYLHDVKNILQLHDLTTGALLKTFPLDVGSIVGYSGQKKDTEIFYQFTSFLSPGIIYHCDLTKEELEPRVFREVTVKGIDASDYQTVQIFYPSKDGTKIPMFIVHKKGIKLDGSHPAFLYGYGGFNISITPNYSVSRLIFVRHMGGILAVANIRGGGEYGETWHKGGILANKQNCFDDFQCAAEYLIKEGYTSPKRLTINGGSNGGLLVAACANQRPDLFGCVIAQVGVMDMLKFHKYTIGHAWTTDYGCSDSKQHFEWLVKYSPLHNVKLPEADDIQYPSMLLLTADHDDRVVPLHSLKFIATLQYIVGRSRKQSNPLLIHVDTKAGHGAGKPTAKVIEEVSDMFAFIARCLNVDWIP

[4] = target: T2, recombinant prolyl oligopeptidase (POP); settings: tested previously; cited from earlier work
[5] = isolated from Fumaria vaillantii, review of Sener and Orhan

T1 sequence (P22303 32-617 isoform P22303-2 limits assumed): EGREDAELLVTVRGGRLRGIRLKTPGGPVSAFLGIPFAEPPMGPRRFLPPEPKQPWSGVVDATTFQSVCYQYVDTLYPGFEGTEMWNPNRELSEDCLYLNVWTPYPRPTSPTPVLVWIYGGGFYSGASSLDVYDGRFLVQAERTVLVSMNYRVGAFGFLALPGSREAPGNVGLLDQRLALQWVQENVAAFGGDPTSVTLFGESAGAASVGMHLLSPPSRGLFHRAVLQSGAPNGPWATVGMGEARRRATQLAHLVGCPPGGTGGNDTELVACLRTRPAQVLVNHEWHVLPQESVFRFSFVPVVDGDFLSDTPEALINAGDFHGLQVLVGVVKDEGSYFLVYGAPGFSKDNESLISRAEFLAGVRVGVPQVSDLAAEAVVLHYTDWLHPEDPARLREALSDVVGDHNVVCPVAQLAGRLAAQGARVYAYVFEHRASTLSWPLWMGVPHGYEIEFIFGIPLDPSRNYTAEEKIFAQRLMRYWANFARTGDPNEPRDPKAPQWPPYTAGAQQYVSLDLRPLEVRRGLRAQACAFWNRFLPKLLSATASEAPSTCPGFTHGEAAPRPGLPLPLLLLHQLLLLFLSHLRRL
human plasma butyrylcholinesterase (BChE), sequence (P06276 29-602): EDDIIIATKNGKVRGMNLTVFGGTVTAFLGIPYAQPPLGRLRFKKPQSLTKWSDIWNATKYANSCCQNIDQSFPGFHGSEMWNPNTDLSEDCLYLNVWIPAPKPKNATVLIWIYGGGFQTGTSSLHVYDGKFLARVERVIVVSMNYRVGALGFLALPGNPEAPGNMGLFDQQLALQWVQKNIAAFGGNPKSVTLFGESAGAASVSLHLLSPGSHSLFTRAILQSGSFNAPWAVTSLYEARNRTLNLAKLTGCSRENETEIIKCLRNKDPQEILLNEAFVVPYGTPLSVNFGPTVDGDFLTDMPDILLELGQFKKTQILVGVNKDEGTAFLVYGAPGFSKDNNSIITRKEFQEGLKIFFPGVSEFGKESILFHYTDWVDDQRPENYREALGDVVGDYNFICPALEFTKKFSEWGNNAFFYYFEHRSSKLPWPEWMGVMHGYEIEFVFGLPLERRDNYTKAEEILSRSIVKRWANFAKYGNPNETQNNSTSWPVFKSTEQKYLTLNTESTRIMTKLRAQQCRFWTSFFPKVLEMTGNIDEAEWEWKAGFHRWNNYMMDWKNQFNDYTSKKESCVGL

Molecule	IC50 (AChE) [µM]	IC50 [1] [µM]	IC50 [2] [µM]	other results
COc1cc2c(cc1O)C(Cc1ccc(O)cc1)N(C)CC2 (single isomer, unassigned; (+)) [(+)-N-methylcoclaurine]	> 220	–	–	IC50 (BChE): 15 ± 1.4 µM
COc1ccc(CC2c3cc4c(cc3CCN2C)OCO4)c(C=O)c1OC (single isomer, unassigned; (+)) [canadaline, (+)-canadaline]	20.1	–	–	–
COc1ccc(C[C@H]2c3cc(O)c(OC)cc3CCN2C)cc1O [(+)-reticuline]	> 220	–	–	IC50 (BChE): 33.6 ± 3 µM
COc1cc2c(cc1O)[C@@H]1Cc3cc4c(cc3[C@H](C2)N1C)OCO4 [(–)-caryachine]	19.6 ± 0.4	–	–	–
COc1cc2c(cc1OC)[C@@H]1Cc3cc(OC)c(OC)cc3[C@H](C2)N1C [Compound 3, (–)-argemonine]	–	> 1000	885 ± 119	IC50 [3]: 337 ± 83.1 µM
COc1ccc2c(c1OC)CN(C)CCc1cc3c(cc1C(=O)C2)OCO3 [Compound 4, allocryptopine]	–	250 ± 25	530 ± 28.2	IC50 [3]: > 1000 µM; IC50 (AChE; [5]): 1.3 µM
COc1cc2c(cc1OC)[C@@H]1Cc3ccc(OC)c(O)c3[C@H](C2)N1C [Compound 5, (–)-platycerine]	–	224 ± 19.6	> 1000	IC50 [4]: 687 ± 74 µM
COc1cc2c(cc1O)[C@@H]1Cc3ccc(OC)c(O)c3[C@H](C2)N1C [Compound 6, (–)-munitagine]	–	62.3 ± 5.8	837 ± 23	IC50 [3]: 277 ± 31.3 µM
COc1cc2c(cc1O)[C@@H]1Cc3cc(OC)c(OC)cc3[C@H](C2)N1C [Compound 7, (–)-norargemonine]	–	205 ± 11.7	> 1000	–
(–)-californidine	36.7 ± 0.9	–	–	–
protopine [Compound 2]	–	–	–	Type of AChE inhibition (AChE): dose-dependent, specific, reversible and competitive AChE inhibitor; IC50 (AChE; [5]): 1.8 µM
